# From patent publication US20150182629A1, “STABLE COMPOSITIONS OF FESOTERODINE” (HETERO RESEARCH FOUNDATION, priority 2012, published 2015)
# Assay: Stability evaluation of drug-excipient blend (impurities initially and after storage)
# Type: physicochemical
# Description: According to the present invention stability of drug-excipient blend was evaluated based on percentage w/w of 2-((R)-3-(diisopropylamino)-1-phenylpropyl)-4-(hydroxymethyl)phenol impurity (H-FTFRC-01) and total impurities present in drug-excipient blend, initially and after storage for one month at 40° C. and 75% relative humidity.
smiles,measurement,setting,value
"CC(C)C(=O)Oc1ccc(CO)cc1[C@H](CCN(C(C)C)C(C)C)c1ccccc1.O=C(O)/C=C/C(=O)O [Fesoterodine fumarate, isobutyric acid 2-((R)-3-diisopropylammonium-1phenylpropyl)-4-(hydroxymethyl) phenyl ester hydrogen fumarate]",H-FTFRC-01 impurity,"40° C./75% RH, 1 month",0.524 % w/w
same,Total Impurities,"40° C./75% RH, 1 month",1.245 % w/w
same,H-FTFRC-01 impurity,Initial,0.284 % w/w
same,Total Impurities,Initial,0.800 % w/w
